Reference: ChEMBL document CHEMBL1201862, “PubChem BioAssay data set” (2004)
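Following 48 hours of exposure in 96-well plates, responses at five concentrations were used to interpolate endpoints linearly. GI50 = concentration required for 50% inhibition of growth.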 Active and inactive are the calls of the source. Rule as the data show it: active = GI50 up to about 1.1 µM and inactive = higher.

Legend:
Test in all cases: NCI tumour cell line growth inhibition, 48 h
M14 = system: M14
OVCAR-5 = system: OVCAR-5
SF-539 = system: SF-539
KM-20L2 = system: KM-20L2
RPMI-8226 = system: RPMI-8226
OVCAR-8 = system: OVCAR-8
UO-31 = system: UO-31
Malme-3M = system: Malme-3M
UACC-257 = system: UACC-257
U-251 = system: U-251
OVCAR-3 = system: OVCAR-3
SK-MEL-28 = system: SK-MEL-28
UACC-62 = system: UACC-62
XF498 = system: XF498
DLD-1 = system: DLD-1
ACHN = system: ACHN
Hs-578T = system: Hs-578T
HCC 2998 = system: HCC 2998
BT-549 = system: BT-549
MDA-MB-231 = system: MDA-MB-231

Measured: GI50

O=C1C(Cl)N(c2cccc([N+](=O)[O-])c2)C1c1c[nH]c2ccccc12 (configuration not stated)
inactive: M14 16.1 µM | OVCAR-5 11.9 µM | SF-539 15.3 µM | KM-20L2 19.9 µM | RPMI-8226 16.9 µM | OVCAR-8 23.1 µM | UO-31 17.5 µM | Malme-3M 2.36 µM | UACC-257 20.7 µM | U-251 22.2 µM | OVCAR-3 20.5 µM | SK-MEL-28 23.7 µM | UACC-62 13.8 µM

O=C1NP23(OCCO2)Oc2ccccc2C3(C(F)(F)F)O1 (configuration not stated)
inactive: M14 > 100 µM | SF-539 > 100 µM | XF498 > 100 µM | DLD-1 > 100 µM | OVCAR-8 > 100 µM | Malme-3M > 100 µM | ACHN > 100 µM | UACC-257 > 100 µM | U-251 > 100 µM | OVCAR-3 > 100 µM | SK-MEL-28 > 100 µM | UACC-62 > 100 µM

CC1CC2=C(C1)C(C1(C)C(=O)CC3C(C1=O)C3(C)C)C(C)C2=O (configuration not stated)
inactive: Hs-578T > 100 µM | M14 > 100 µM | HCC 2998 > 100 µM | OVCAR-5 > 100 µM | SF-539 > 100 µM | BT-549 > 100 µM | RPMI-8226 > 100 µM | OVCAR-8 > 100 µM | UO-31 99.5 µM | Malme-3M > 100 µM | ACHN > 100 µM | UACC-257 > 100 µM | U-251 > 100 µM | OVCAR-3 > 100 µM | SK-MEL-28 > 100 µM | UACC-62 > 100 µM | MDA-MB-231 > 100 µM

Cc1cccc(C)c1NC(=O)CCC(=O)NC(N)=S
inactive: M14 > 100 µM | HCC 2998 > 100 µM | OVCAR-5 > 100 µM | SF-539 > 100 µM | KM-20L2 > 100 µM | DLD-1 > 100 µM | RPMI-8226 > 100 µM | OVCAR-8 > 100 µM | UO-31 > 100 µM | Malme-3M > 100 µM | ACHN > 100 µM | UACC-257 > 100 µM | U-251 > 100 µM | OVCAR-3 > 100 µM | UACC-62 > 100 µM

O=C1NC2(CCNCC2)Oc2ccccc21
inactive: Hs-578T > 100 µM | M14 > 100 µM | HCC 2998 > 100 µM | OVCAR-5 > 100 µM | SF-539 > 100 µM | BT-549 > 100 µM | RPMI-8226 > 100 µM | OVCAR-8 > 100 µM | UO-31 > 100 µM | Malme-3M > 100 µM | ACHN > 100 µM | UACC-257 > 100 µM | U-251 > 100 µM | OVCAR-3 > 100 µM | SK-MEL-28 > 100 µM | UACC-62 > 100 µM | MDA-MB-231 > 100 µM

COc1c2occc2c(N)c2ccc(=O)oc12
inactive: Hs-578T > 100 µM | M14 > 100 µM | HCC 2998 > 100 µM | OVCAR-5 > 100 µM | SF-539 75.2 µM | BT-549 > 100 µM | RPMI-8226 > 100 µM | OVCAR-8 > 100 µM | UO-31 > 100 µM | Malme-3M > 100 µM | ACHN > 100 µM | UACC-257 > 100 µM | U-251 > 100 µM | OVCAR-3 > 100 µM | SK-MEL-28 > 100 µM | UACC-62 41.6 µM | MDA-MB-231 > 100 µM

O=c1[nH]cc(COCC(F)(F)C(F)(F)C(F)(F)C(F)F)c(=O)[nH]1
inactive: M14 > 100 µM | HCC 2998 > 100 µM | OVCAR-5 > 100 µM | KM-20L2 > 100 µM | DLD-1 > 100 µM | RPMI-8226 > 100 µM | OVCAR-8 > 100 µM | UO-31 > 100 µM | Malme-3M > 100 µM | ACHN > 100 µM | UACC-257 > 100 µM | U-251 > 100 µM | OVCAR-3 > 100 µM | SK-MEL-28 > 100 µM | UACC-62 > 100 µM

O=C1CCCCc2cccc(O)c21
inactive: Hs-578T > 100 µM | M14 > 100 µM | HCC 2998 > 100 µM | OVCAR-5 > 100 µM | SF-539 > 100 µM | BT-549 > 100 µM | RPMI-8226 > 100 µM | OVCAR-8 > 100 µM | UO-31 > 100 µM | Malme-3M > 100 µM | ACHN > 100 µM | UACC-257 > 100 µM | U-251 > 100 µM | OVCAR-3 > 100 µM | SK-MEL-28 > 100 µM | UACC-62 > 100 µM | MDA-MB-231 > 100 µM

Cc1cc(C)n(CCNCCn2nc(C)cc2C)n1
inactive: M14 > 100 µM | HCC 2998 > 100 µM | SF-539 > 100 µM | KM-20L2 > 100 µM | DLD-1 > 100 µM | RPMI-8226 > 100 µM | OVCAR-8 > 100 µM | UO-31 > 100 µM | ACHN > 100 µM | UACC-257 > 100 µM | U-251 > 100 µM | OVCAR-3 > 100 µM | SK-MEL-28 91 µM | UACC-62 > 100 µM
